Legend:
Experiment in all cases: relative viability (nuclei count vs DMSO), 5 days (fraction); higher = more cells survive
[1] = compound: CN(C/C=C/C1=CC=C(C=C1)Cl)CC2=CC=CC=C2N(CCO)S(=O)(=O)C3=CC=C(C=C3)OC [KN-93] + Nc1nc2[nH]cc(CCc3ccc(C(=O)N[C@@H](CCC(=O)O)C(=O)O)cc3)c2c(=O)[nH]1 [Pemetrexed] (partner 0.2 µM)
Outline: (§1)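 Relative viability was taken as the ratio of nuclei in treated wells to nuclei in vehicle wells. Lung cancer cell lines in 1536-well plates received compounds by pin tool one day after seeding, either one drug alone or a fixed anchor-drug dose plus five library-drug doses (not always all listed) in √10 steps. Nuclei were counted on 4× images after 5 days of treatment, and values are medians of duplicate plates.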

[2] = compound: CN(C/C=C/C1=CC=C(C=C1)Cl)CC2=CC=CC=C2N(CCO)S(=O)(=O)C3=CC=C(C=C3)OC [KN-93] + N=C(N)NC(=N)NCCc1ccccc1 [Phenformin] (partner 250 µM)
Outline: as §1

[3] = compound: CN(C/C=C/C1=CC=C(C=C1)Cl)CC2=CC=CC=C2N(CCO)S(=O)(=O)C3=CC=C(C=C3)OC [KN-93] + CC(=O)c1c(C)c2cnc(Nc3ccc(N4CCNCC4)cn3)nc2n(C2CCCC2)c1=O [Palbociclib] (partner 0.5 µM)
Outline: as §1

[4] = compound: CN(C/C=C/C1=CC=C(C=C1)Cl)CC2=CC=CC=C2N(CCO)S(=O)(=O)C3=CC=C(C=C3)OC [KN-93] + O=C(c1cc(Cc2n[nH]c(=O)c3ccccc23)ccc1F)N1CCN(C(=O)C2CC2)CC1 [Olaparib] (partner 8 µM)
Outline: as §1

[5] = compound: CN(C/C=C/C1=CC=C(C=C1)Cl)CC2=CC=CC=C2N(CCO)S(=O)(=O)C3=CC=C(C=C3)OC [KN-93] + CS(=O)(=O)CCNCc1ccc(-c2ccc3ncnc(Nc4ccc(OCc5cccc(F)c5)c(Cl)c4)c3c2)o1 [Lapatinib] (partner 2 µM)
Outline: as §1

Cell Line: NCI-H1793
- relative viability ([1]; first compound 0.08 µM): 0.97
- relative viability ([1]; first compound 0.253 µM): 0.899
- relative viability ([1]; first compound 2.53 µM): 1.1
- relative viability ([1]; first compound 8 µM): 0.528
- relative viability ([2]; first compound 0.08 µM): 0.372
- relative viability ([2]; first compound 0.253 µM): 0.36
- relative viability ([2]; first compound 2.53 µM): 0.367
- relative viability ([2]; first compound 8 µM): 0.2
- relative viability ([3]; first compound 0.08 µM): 0.38
- relative viability ([3]; first compound 0.253 µM): 0.311
- relative viability ([3]; first compound 2.53 µM): 0.318
- relative viability ([3]; first compound 8 µM): 0.253
- relative viability ([4]; first compound 0.08 µM): 0.74
- relative viability ([4]; first compound 0.253 µM): 0.83
- relative viability ([4]; first compound 2.53 µM): 0.783
- relative viability ([4]; first compound 8 µM): 0.382
- relative viability ([5]; first compound 0.253 µM): 0.804
- relative viability ([5]; first compound 2.53 µM): 0.992
- relative viability ([5]; first compound 8 µM): 0.556

Cell Line: NCI-H1915
- relative viability ([1]; first compound 0.08 µM): 0.471
- relative viability ([1]; first compound 0.253 µM): 0.601
- relative viability ([1]; first compound 2.53 µM): 0.515
- relative viability ([1]; first compound 8 µM): 0.506
- relative viability ([2]; first compound 0.08 µM): 0.382
- relative viability ([2]; first compound 0.253 µM): 0.421
- relative viability ([2]; first compound 2.53 µM): 0.408
- relative viability ([2]; first compound 8 µM): 0.359
- relative viability ([3]; first compound 0.08 µM): 0.536
- relative viability ([3]; first compound 0.253 µM): 0.537
- relative viability ([3]; first compound 2.53 µM): 0.513
- relative viability ([3]; first compound 8 µM): 0.438
- relative viability ([4]; first compound 0.08 µM): 0.248
- relative viability ([4]; first compound 0.253 µM): 0.264
- relative viability ([4]; first compound 2.53 µM): 0.276
- relative viability ([4]; first compound 8 µM): 0.255
- relative viability ([5]; first compound 0.08 µM): 0.963
- relative viability ([5]; first compound 0.253 µM): 1.25
- relative viability ([5]; first compound 2.53 µM): 1.01
- relative viability ([5]; first compound 8 µM): 0.908

Cell Line: NCI-H1944
- relative viability ([1]; first compound 0.08 µM): 0.599
- relative viability ([1]; first compound 0.253 µM): 0.598
- relative viability ([1]; first compound 2.53 µM): 0.545
- relative viability ([1]; first compound 8 µM): 0.57
- relative viability ([2]; first compound 0.08 µM): 0.172
- relative viability ([2]; first compound 0.253 µM): 0.216
- relative viability ([2]; first compound 2.53 µM): 0.218
- relative viability ([2]; first compound 8 µM): 0.195
- relative viability ([3]; first compound 0.08 µM): 0.368
- relative viability ([3]; first compound 0.253 µM): 0.328
- relative viability ([3]; first compound 2.53 µM): 0.327
- relative viability ([3]; first compound 8 µM): 0.243
- relative viability ([4]; first compound 0.08 µM): 0.356
- relative viability ([4]; first compound 0.253 µM): 0.378
- relative viability ([4]; first compound 2.53 µM): 0.401
- relative viability ([4]; first compound 8 µM): 0.334
- relative viability ([5]; first compound 0.08 µM): 0.84
- relative viability ([5]; first compound 0.253 µM): 0.793
- relative viability ([5]; first compound 2.53 µM): 0.96
- relative viability ([5]; first compound 8 µM): 0.771

Cell Line: NCI-H1975
- relative viability ([1]; first compound 0.08 µM): 0.277
- relative viability ([1]; first compound 0.253 µM): 0.299
- relative viability ([1]; first compound 2.53 µM): 0.309
- relative viability ([1]; first compound 8 µM): 0.221
- relative viability ([2]; first compound 0.08 µM): 0.423
- relative viability ([2]; first compound 0.253 µM): 0.463
- relative viability ([2]; first compound 2.53 µM): 0.456
- relative viability ([2]; first compound 8 µM): 0.4
- relative viability ([3]; first compound 0.08 µM): 0.475
- relative viability ([3]; first compound 0.253 µM): 0.477
- relative viability ([3]; first compound 2.53 µM): 0.742
- relative viability ([3]; first compound 8 µM): 0.193
- relative viability ([4]; first compound 0.08 µM): 0.534
- relative viability ([4]; first compound 0.253 µM): 0.839
- relative viability ([4]; first compound 2.53 µM): 0.826
- relative viability ([4]; first compound 8 µM): 0.456
- relative viability ([5]; first compound 0.08 µM): 0.656
- relative viability ([5]; first compound 0.253 µM): 1.05
- relative viability ([5]; first compound 2.53 µM): 0.976
- relative viability ([5]; first compound 8 µM): 0.579

Cell Line: NCI-H1993
- relative viability ([1]; first compound 0.08 µM): 0.474
- relative viability ([1]; first compound 0.253 µM): 0.535
- relative viability ([1]; first compound 2.53 µM): 0.618
- relative viability ([1]; first compound 8 µM): 0.58
- relative viability ([2]; first compound 0.08 µM): 0.619
- relative viability ([2]; first compound 0.253 µM): 0.519
- relative viability ([2]; first compound 2.53 µM): 0.512
- relative viability ([2]; first compound 8 µM): 0.574
- relative viability ([3]; first compound 0.08 µM): 0.628
- relative viability ([3]; first compound 0.253 µM): 0.563
- relative viability ([3]; first compound 2.53 µM): 0.595
- relative viability ([3]; first compound 8 µM): 0.498
- relative viability ([4]; first compound 0.08 µM): 0.915
- relative viability ([4]; first compound 0.253 µM): 0.947
- relative viability ([4]; first compound 2.53 µM): 1.14
- relative viability ([4]; first compound 8 µM): 0.771
- relative viability ([5]; first compound 0.08 µM): 0.693
- relative viability ([5]; first compound 0.253 µM): 0.772
- relative viability ([5]; first compound 2.53 µM): 0.862
- relative viability ([5]; first compound 8 µM): 0.758

Cell Line: NCI-H2009
- relative viability ([1]; first compound 0.08 µM): 1.01
- relative viability ([1]; first compound 0.253 µM): 1.07
- relative viability ([1]; first compound 2.53 µM): 1.1
- relative viability ([1]; first compound 8 µM): 0.796
- relative viability ([2]; first compound 0.08 µM): 0.426
- relative viability ([2]; first compound 0.253 µM): 0.557
- relative viability ([2]; first compound 2.53 µM): 0.492
- relative viability ([2]; first compound 8 µM): 0.317
- relative viability ([3]; first compound 0.08 µM): 0.244
- relative viability ([3]; first compound 0.253 µM): 0.204
- relative viability ([3]; first compound 2.53 µM): 0.217
- relative viability ([3]; first compound 8 µM): 0.196
- relative viability ([4]; first compound 0.08 µM): 0.683
- relative viability ([4]; first compound 0.253 µM): 0.815
- relative viability ([4]; first compound 2.53 µM): 0.656
- relative viability ([4]; first compound 8 µM): 0.528
- relative viability ([5]; first compound 0.08 µM): 0.899
- relative viability ([5]; first compound 0.253 µM): 0.891
- relative viability ([5]; first compound 2.53 µM): 0.814
- relative viability ([5]; first compound 8 µM): 0.418

Cell Line: NCI-H2023
- relative viability ([1]; first compound 0.08 µM): 0.244
- relative viability ([1]; first compound 0.253 µM): 0.247
- relative viability ([1]; first compound 2.53 µM): 0.325
- relative viability ([1]; first compound 8 µM): 0.14
- relative viability ([2]; first compound 0.08 µM): 0.365
- relative viability ([2]; first compound 0.253 µM): 0.466
- relative viability ([2]; first compound 2.53 µM): 0.496
- relative viability ([2]; first compound 8 µM): 0.247
- relative viability ([3]; first compound 0.08 µM): 0.384
- relative viability ([3]; first compound 0.253 µM): 0.436
- relative viability ([3]; first compound 2.53 µM): 0.49
- relative viability ([3]; first compound 8 µM): 0.227
- relative viability ([4]; first compound 0.08 µM): 0.454
- relative viability ([4]; first compound 0.253 µM): 0.542
- relative viability ([4]; first compound 2.53 µM): 0.606
- relative viability ([4]; first compound 8 µM): 0.324
- relative viability ([5]; first compound 0.08 µM): 0.804
- relative viability ([5]; first compound 0.253 µM): 0.858
- relative viability ([5]; first compound 2.53 µM): 0.932
- relative viability ([5]; first compound 8 µM): 0.239

Cell Line: NCI-H2085
- relative viability ([1]; first compound 0.08 µM): 0.933
- relative viability ([1]; first compound 0.253 µM): 0.905
- relative viability ([1]; first compound 2.53 µM): 0.883
- relative viability ([1]; first compound 8 µM): 0.739
- relative viability ([2]; first compound 0.08 µM): 0.698
- relative viability ([2]; first compound 0.253 µM): 0.796
- relative viability ([2]; first compound 2.53 µM): 0.815
- relative viability ([2]; first compound 8 µM): 0.655
- relative viability ([3]; first compound 0.08 µM): 0.484
- relative viability ([3]; first compound 0.253 µM): 0.427
- relative viability ([3]; first compound 2.53 µM): 0.456
- relative viability ([3]; first compound 8 µM): 0.387
- relative viability ([4]; first compound 0.08 µM): 0.741
- relative viability ([4]; first compound 0.253 µM): 0.735
- relative viability ([4]; first compound 2.53 µM): 0.776
- relative viability ([4]; first compound 8 µM): 0.6
- relative viability ([5]; first compound 0.08 µM): 0.816
- relative viability ([5]; first compound 0.253 µM): 0.695
- relative viability ([5]; first compound 2.53 µM): 0.803
- relative viability ([5]; first compound 8 µM): 0.541
